target: GPR35 (Homo sapiens, UniProt Q9HC97); assay: label-free dynamic mass redistribution; assay type: cell-based; details: read-out: EC50/IC50; agonist mode; HBSS, 10 mM HEPES, pH 7.4
Sequence (Q9HC97 whole entry): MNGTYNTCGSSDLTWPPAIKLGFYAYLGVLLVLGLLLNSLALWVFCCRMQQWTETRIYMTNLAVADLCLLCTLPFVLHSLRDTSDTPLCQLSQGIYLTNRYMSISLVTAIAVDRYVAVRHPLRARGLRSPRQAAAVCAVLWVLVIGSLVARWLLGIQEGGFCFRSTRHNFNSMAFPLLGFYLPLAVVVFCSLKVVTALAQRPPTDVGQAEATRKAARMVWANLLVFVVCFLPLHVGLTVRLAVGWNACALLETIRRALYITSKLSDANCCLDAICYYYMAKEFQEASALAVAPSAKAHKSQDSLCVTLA

With `COc1c(O)cc2occ(-c3ccc(O)cc3)c(=O)c2c1O` [LCDD-41, tectorigenin] as the molecule, how does the EC50 read?
The EC50 was > 200 µM.

Which EC50 does the source give for `O=C1c2c(O)cc(O)cc2O[C@H](c2ccc(O)c(O)c2)[C@H]1O` [LCDD-68, taxifolin] here?
Its EC50 is > 200 µM.

How did the EC50 turn out when `O=C(/C=C/c1ccc(O)c(O)c1)O[C@@H]1[C@H](O)C[C@@](O)(C(=O)O)C[C@H]1OC(=O)/C=C/c1ccc(O)c(O)c1` [LCDD-79, isochlorogenic acid C] was run?
Its EC50 is 114 µM.

With `O=C(/C=C/c1ccc(O)cc1)c1ccc(O)cc1O` [LCDD-88, isoliquiritigenin] as the molecule, how does the EC50 read?
Its EC50 is > 200 µM.

With `COc1c(/C=C/C(=O)c2ccc(O)cc2)ccc(O)c1O` [LCDD-93, licochalcone B] as the molecule, how does the EC50 read?
The EC50 was 25.1 µM.

Which EC50 does the source give for `O=C(O)[C@H]1O[C@@H](Oc2cc3oc(-c4ccccc4)cc(=O)c3c(O)c2O)[C@H](O)[C@@H](O)[C@@H]1O` [LCDD-117, baicalin] here?
The EC50 was > 200 µM.

— paper PMC8329432 (Journal of Ethnopharmacology, 2021)
